According to US7250410B2, “Cyclic nucleotide phosphodiesterase inhibitors, preparation and uses thereof” (Via Pharmaceuticals, Inc., priority 2001, dated 2007):

Biological target: PDE4
Assay: Inhibition of PDE4, radioenzymatic phosphodiesterase assay
Format: biochemical, bovine
Conditions: for IC50: 1 μM cyclic AMP; for PDE4 percentage inhibition at 10 μM: compound at 10 μM
Protocol: A 3 g segment of bovine aortic media cut into pieces with scissors was homogenized with an ultra-turrax then a potter glass/glass homogenizer in 7 volumes by weight of buffer A containing a protease inhibitor cocktail (20 mM Tris-HCl, 0.25 M saccharose, 2 mM magnesium acetate, 1 mM dithiothreitol, 5 mM EGTA, 2000 U/ml aprotinin, 10 mg/l leupeptin and 10 mg/l soya trypsic inhibitor). The homogenizate was centrifuged at 105,000 g for 1 hour. […] The column was washed until there was no detectable absorption at 280 nm, then eluted with a linear gradient of NaCl (0–0.5 M) in buffer B. 3-ml fractions were collected and enzyme activity was determined under the conditions described hereinafter to localize the different enzymes PDE1, PDE3, PDE4 and PDE5, which were aliquoted and frozen at −80° C.
The nucleoside formed was separated from the nucleotides by anion exchange chromatography. Nucleoside radioactivity was determined by liquid scintillation counting.

| Structure (SMILES) | IC50 (Table 3, formula (II)) | PDE4 percentage inhibition at 10 μM (Table 3, formula (II)) | also measured |
| --- | --- | --- | --- |
| CCOc1cc2c(cc1OC)C(c1ccccc1)=NC(Cc1ccccc1)C(=O)N2CC (centres unmarked) [IIbb, 3-benzyl-8-ethoxy-1-ethyl-7-methoxy-5-phenyl-1,3-dihydro-2H-1,4-benzodiazepin-2-one] | 3.13 µM |  |  |
| COc1cc2c(cc1OC)N(C)C(=O)CN=C2c1ccc(Br)cc1 [IIba, 5-(4-bromophenyl)-7,8-dimethoxy-1-methyl-1,3-dihydro-2H-1,4-benzodiazepin-2-one] | 17 µM |  |  |
| COc1cc2c(cc1OC)C(c1ccccc1)=N[C@@H](CCCCN)C(=O)N2 [XXIIaw, (S)-3-(4-aminobutyl)-7,8-dimethoxy-5-phenyl-1,3-dihydro-2H-1,4-benzodiazepin-2-one] |  |  | PDE4 percentage inhibition at 10 μM (Table 2, formula (XXII)): 4% |
| COc1cc2c(cc1OC)C(c1ccccc1)=NCC(=O)N2 [XXIIaa, 7,8-dimethoxy-5-phenyl-1,3-dihydro-2H-1,4-benzodiazepin-2-one] |  |  | PDE4 percentage inhibition at 10 μM (Table 2, formula (XXII)): 25.8% |
| CCN1C(=O)C(Cc2ccc(C)cc2)N=C(c2ccccc2)c2cc(OC)c(OC)cc21 (centres unmarked) [IIdd, 1-ethyl-7,8-dimethoxy-3-(4-methylbenzyl)-5-phenyl-1,3-dihydro-2H-1,4-benzodiazepin-2-one] |  | 31.5% |  |
| CCN1C(=O)C(Cc2ccccc2CN)N=C(c2ccccc2)c2cc(OC)c(OC)cc21 (centres unmarked) [IIcg, 3-(2-aminomethylbenzyl)-7,8-dimethoxy-1-ethyl-5-phenyl-1,3-dihydro-2H-1,4-benzodiazepin-2-one] | 6.7 µM |  |  |
| COc1cc2c(cc1OC)C(c1ccccc1)=NC(Cc1ccccc1)C(=O)N2 (centres unmarked) [XXIIap, 3-benzyl-7,8-dimethoxy-5-phenyl-1,3-dihydro-2H-1,4-benzodiazepin-2-one] |  |  | PDE4 percentage inhibition at 10 μM (Table 2, formula (XXII)): 36.10% |
| CCN1C(=O)CN=C(c2ccc(Br)cc2)c2cc(OC)c(OC)cc21 [IIbl, 5-(4-bromophenyl)-1-ethyl-7,8-dimethoxy-1,3-dihydro-2H-1,4-benzodiazepin-2-one] | 15 µM |  |  |
| COc1cc2c(cc1OC)C(c1ccc(-c3ccccc3OC)cc1)=NN(C)C(=O)C2 [IIIai, 7,8-dimethoxy-1-[4-(2-methoxyphenyl)phenyl]-3-methyl-3,5-dihydro-4H-2,3-benzodiazepin-4-one] |  |  | IC50 (Table 1, formula (III)): 1.8 µM |
| COc1cc2c(cc1OC)N(C)C(=O)CN=C2c1cc(C(F)(F)F)cc(C(F)(F)F)c1 [IIaf, 7,8-dimethoxy-1-methyl-5-(3, 5 bistrifluoromethylphenyl)-1,3-dihydro-2H-1,4-benzodiazepin-2-one] |  | 11.7% |  |
| COc1cccc(-c2ccc(C3=NN(C)C(=O)Cc4cc(OC)c(OC)cc43)cc2)c1 [IIIaj, 7,8-dimethoxy-1-[4-(3-methoxyphenyl)phenyl]-3-methyl-3,5-dihydro-4H-2,3-benzodiazepin-4-one] |  |  | IC50 (Table 1, formula (III)): 2.7 µM |
| CCN1C(=O)C(CC#N)N=C(c2ccccc2)c2cc(OC)c(OC)cc21 (centres unmarked) [IIcb, (1-ethyl-7,8-dimethoxy-2-oxo-5-phenyl-2,3-dihydro-1H-1,4-benzodiazepin-3-yl)acetonitrile] |  | 28.5% |  |
| CCN1C(=O)C(Cc2ccc(Br)cc2)N=C(c2ccccc2)c2cc(OC)c(OC)cc21 (centres unmarked) [IIcd, 3-(4-bromobenzyl)-1-ethyl-7,8-dimethoxy-5-phenyl-1,3-dihydro-2H-1,4-benzodiazepin-2-one] |  | 20.1% |  |
| CCN1C(=O)C(Cc2ccc(-c3ccccc3)cc2)N=C(c2ccccc2)c2cc(OC)c(OC)cc21 (centres unmarked) [IIck, 3-(1,1′-biphenyl-4-ylmethyl)-1-ethyl-7,8-dimethoxy-5-phenyl-1,3-dihydro-2H-1,4-benzodiazepin-2-one] |  | 32.2% |  |
| CCOc1cc2c(cc1OC)C(c1ccccc1)=NC(c1ccccc1)C(=O)N2 (centres unmarked) [XXIIba, 3,5-diphenyl-8-ethoxy-7-methoxy-1,3-dihydro-2H-1,4-benzodiazepin-2-one] |  |  | IC50 (Table 2, formula (XXII)): 6.7 µM |
| CCOc1cc2c(cc1OCC)C(c1cc3ccccc3s1)=NN(C)C(=O)C2 [IIIba, 1-(2-benzo[b]thienyl)-7,8-diethoxy-3-methyl-3,5-dihydro-4H-2,3-benzodiazepin-4-one] |  |  | IC50 (Table 1, formula (III)): 6.9 µM |
| COc1cc2c(cc1OC)C(c1ccc(-c3ccc(Cl)cc3)cc1)=NN(C)C(=O)C2 [IIIat, 1-[4-(4-chlorophenyl)phenyl]-7,8-dimethoxy-3-methyl-3,5-dihydro-4H-2,3-benzodiazepin-4-one] |  |  | IC50 (Table 1, formula (III)): 2.3 µM |
| COc1ccc(C2=NCC(=O)N(C)c3cc(OC)c(OC)cc32)cc1 [IIaw, 7,8-dimethoxy-5-(4-methoxyphenyl)-1-methyl-1,3-dihydro-1,4-benzodiazepin-2-one] | 10 µM |  |  |
| CCN1C(=O)C(C(O)c2cccc(Br)c2)N=C(c2ccccc2)c2cc(OC)c(OC)cc21 (centres unmarked) [IIch, 3-[(3-bromophenyl)(hydroxy)methyl]-1-ethyl-7,8-dimethoxy-5-phenyl-1,3-dihydro-2H-1,4-benzodiazepin-2-one] | 9.6 µM |  |  |

| Structure (SMILES) | IC50 (Table 3, formula (II)) | PDE4 percentage inhibition at 10 μM (Table 3, formula (II)) | also measured |
| --- | --- | --- | --- |
| COc1cc2c(cc1OC)C(c1ccc(-c3cccc(NC(C)=O)c3)cc1)=NN(C)C(=O)C2 [IIIam, 1-[4-(3-acetamidophenyl)phenyl]-7,8-dimethoxy-3-methyl-3,5-dihydro-4H-2,3-benzodiazepin-4-one] |  |  | IC50 (Table 1, formula (III)): 1.7 µM |
| C=CCC1N=C(c2ccccc2)c2cc(OC)c(OC)cc2N(CC)C1=O (centres unmarked) [IIbs, 3-allyl-1-ethyl-7,8-dimethoxy-5-phenyl-1,3-dihydro-2H-1,4-benzodiazepin-2-one] |  | 38.8% |  |
| COc1cc2c(cc1OC)N(C)C(=O)CN=C2c1ccccc1OC [IIam, 7,8-dimethoxy-5-(2-methoxyphenyl)-1-methyl-1,3-dihydro-1,4-benzodiazepin-2-one] |  | 20% |  |
| CCOc1cc2c(cc1OCC)N(Cc1ccccc1)C(=O)CN=C2c1ccccc1 [IIbj, 1-benzyl-7,8-diethoxy-5-phenyl-1,3-dihydro-2H-1,4-benzodiazepin-2-one] | 6.5 µM |  |  |
| CCN1C(=O)C(Cc2ccccc2Br)N=C(c2ccccc2)c2cc(OC)c(OC)cc21 (centres unmarked) [IIcc, 3-(2-bromobenzyl)-1-ethyl-7,8-dimethoxy-5-phenyl-1,3-dihydro-2H-1,4-benzodiazepin-2-one] | 4.97 µM |  |  |
| CCOc1cc2c(cc1OC)C(c1ccccc1)=NC(Cc1cccc(C#N)c1)C(=O)N2C (centres unmarked) [IIdf, 3-[(8-ethoxy-7-methoxy-1-methyl-2-oxo-5-phenyl-2,3-dihydro-1H-1,4-benzodiazepin-3-yl)methyl]benzonitrile] | 1.5 µM |  |  |
| COc1cc2c(cc1OC)C(c1ccccc1)=NC(CCSC)C(=O)N2 (centres unmarked) [XXIIat, 7,8-dimethoxy-3-(2-methylthioethyl)-5-phenyl-1,3-dihydro-2H-1,4-benzodiazepin-2-one] |  |  | PDE4 percentage inhibition at 10 μM (Table 2, formula (XXII)): 29% |
| COc1cc2c(cc1OC)C(c1ccccc1)=NN(Cc1ccccc1)C(=O)C2 [IIIac, 3-benzyl-7,8-dimethoxy-1-phenyl-3,5-dihydro-4H-2,3-benzodiazepin-4-one] |  |  | PDE4 percentage inhibition at 10 μM (Table 1, formula (III)): 33% |
| COc1cc2c(cc1OC)N(C)C(=O)CN=C2c1cc2ccccc2[nH]1 [IIaq, 5-(2-indolyl)-7,8-dimethoxy-1-methyl-1,3-dihydro-1,4-benzodiazepin-2-one] | 7.9 µM |  |  |
| CCN1C(=O)C(Cc2cccc(OC)c2)N=C(c2ccccc2)c2cc(OC)c(OC)cc21 (centres unmarked) [IIdc, 1-ethyl-7,8-dimethoxy-3-(3-methoxybenzyl)-5-phenyl-1,3-dihydro-2H-1,4-benzodiazepin-2-one] | 5.1 µM |  |  |
| COc1cc2c(cc1OC)N(C)C(=O)CN=C2c1ccncc1 [IIae, 7,8-dimethoxy-1-methyl-5-(4-pyridyl)-1,3-dihydro-2H-1,4-benzodiazepin-2-one] |  | 3.4% |  |
| COc1cc2c(cc1OC)C(c1ccccc1)=N[C@@H](CCCCNC(C)=O)C(=O)N2 [XXIIax, (S)-N-[4-(7,8-dimethoxy-2-oxo-5-phenyl-2,3-dihydro-1H-1,4-benzodiazepin-3-yl)butyl]acetamide] |  |  | PDE4 percentage inhibition at 10 μM (Table 2, formula (XXII)): 6% |
| CCN1C(=O)CN=C(c2ccc(-c3ccccc3)cc2)c2cc(OC)c(OC)cc21 [IIbp, 5-(1,1′-biphenyl-4-yl)-1-ethyl-7,8-dimethoxy-1,3-dihydro-2H-1,4-benzodiazepin-2-one] | 5.74 µM |  |  |
| COc1cc2c(cc1OC)N(C)C(=O)CN=C2c1cccc(Br)c1 [IIax, 5-(3-bromophenyl)-7,8-dimethoxy-1-methyl-1,3-dihydro-2H-1,4-benzodiazepin-2-one] | 8.2 µM |  |  |
| COc1cc2c(cc1OC)N(C)C(=O)CN=C2c1ccc2[nH]ccc2c1 [IIan, 5-(5-indolyl)-7,8-dimethoxy-1-methyl-1,3-dihydro-1,4-benzodiazepin-2-one] | 3.6 µM |  |  |
| COc1cc2c(cc1OC)N(Cc1ccccc1)C(=O)CN=C2c1ccccc1 [IIbc, 1-benzyl-7,8-dimethoxy-5-phenyl-1,3-dihydro-2H-1,4-benzodiazepin-2-one] |  | 27.2% |  |
| CCN1C(=O)C(C(Cc2ccc(Br)cc2)c2ccc(Br)cc2)N=C(c2ccccc2)c2cc(OC)c(OC)cc21 (centres unmarked) [IIde, 3-[1,2-bis(4-bromophenyl)ethyl]-1-ethyl-7,8-dimethoxy-5-phenyl-1,3-dihydro-2H-1,4-benzodiazepin-2-one] |  | 0% |  |
| CCN1C(=O)CN=C(c2ccccc2)c2cc(O)c(O)cc21 [IIbk, 1-ethyl-7,8-dihydroxy-5-phenyl-1,3-dihydro-2H-1,4-benzodiazepin-2-one] |  | 14.2% |  |
| CCOC(=O)CC1N=C(c2ccccc2)c2cc(OC)c(OC)cc2N(CC)C1=O (centres unmarked) [IIbv, ethyl (1-ethyl-7,8-dimethoxy-2-oxo-5-phenyl-2,3-dihydro-1H-1,4-benzodiazepin-3-yl)acetate] |  | 44.4% |  |
